According to patent US12459951B2, “Compounds that interact with RAS superfamily proteins for treatment of cancers, inflammatory diseases, rasopathies, and fibrotic disease” (SHY Therapeutics, LLC, priority 2022, dated 2025):

Assays:
KRas Q61H mutant = test: Ras GTP Binding Domain Inhibition Assay (Ras Superfamily Assay); settings: 20 μM compound; for KRas Q61H mutant + SOS: % inh.: with SOS; for KRas Q61H mutant: % inh.: without SOS
Procedure, shortened: (§1)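 Binding of 100 nM fluorescent GTP (Cy3 or Cy5, 45 min, room temperature) was read after washes from plate-captured His-tagged protein. Beforehand, compounds at 20 μM or in dilution series for IC50 sat 3 h on the protein in Tris buffer pH 7.4 or 7.0 with 1% DMSO, Sos GEF optionally added for the last hour.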

Rho-A = biological target: T1, Rho-A (Homo sapiens, UniProt P61586); test: as above; settings: read-out: Rho-A: % inh..
T1 construct: made in house
Procedure, shortened: as §1

KRas G12C mutant = test: as above; settings: 20 μM compound; for KRas G12C mutant + SOS: % inh.: with SOS; for KRas G12C mutant: % inh.: without SOS
Procedure, shortened: as §1

active/cleaved caspase 9 = test: Cell-based caspase activation assay (western blot); design: species or system human
Procedure: (§2) Biological Example 4: Puma Expression and Caspases Activation Assay
(§3) Protocols for Cell-Based Puma Expression and Caspase Activation Assays
(§4) Cell lines: All human tumor-derived cancer cell lines were purchased from American Type Culture Collection. Human tumor-derived cancer cell lines Panc-1 (expressing KRas G12D mutant), MiaPaca-2 (expressing KRas G12C mutant), A549 (expressing KRas G12S mutant), and A375 (expressing wild type KRas) were grown in complete DMEM-High Glucose medium and NCI-H1975 (expressing wild type KRas), MM.1R (expressing wild type KRas) and IM.9 (expressing wild type KRas) were grown in RPMI1640 medium. Human tumor-derived cancer cell line BT-549 (expressing wild type KRas) was grown in RPMI1640 medium with 11.8U insulin. All mediums were supplemented with penicillin (100 U/mL), streptomycin (100 μg/mL), and 10% heat-inactivated FBS at 37° C. in a humidified incubator with 5% CO2.
(§5) Method: Cells were plated at 300,000 to 800,000 cells/well density in a 6-well plate in the presence of 10% FBS. The next day small molecules to be tested were added to the cells in the final concentration of 3 μM in the presence of 0.3% DMSO for 48 hours incubation at 37° C. For IC50 value determination, serial dilutions of compounds were added to cells under the same conditions. Following 48 hours of incubation cells were lysed with lysis buffer containing 1% Triton X-100, EDTA, and Halt™ Protease & Phosphatase Inhibitor Cocktail (Thermo Scientific). Protein concentration was assessed by BCA protein assay (Thermo Scientific). Increase expression of PUMA and active/cleaved forms of caspase 3, caspase 6 and caspase 9 were detected by western blot.
(§6) Western blot protocol: Equal amounts of protein (15-50 μg) were separated by SDS-PAGE and transferred to nitrocellulose membranes (Invitrogen by Thermo Fisher Scientific). The membrane was stained with Ponceau S Stain (Boston BioProducts) to verify uniform protein loading. Membranes were blocked with 10% milk and expression levels of PUMA was assessed by incubating overnight at 4° C. with the antibody PUMA (D30C10) from Cell Signaling Technology (#12450) and active/cleaved forms of caspase 3, caspase 6 and caspase 9 by incubating overnight at 4° C. with the following antibodies: cleaved caspase-3 (Asp175) (5A1E), cleaved caspase-6 (Asp162) and cleaved caspase-9 (Asp330) (D2D4) (all antibodies from Cell Signaling Technology). Then the membranes were incubated with HRP-conjugated secondary antibody (Jackson Immunoresearch, West Grove, PA). Bands were incubated in Amersham ECL Prime Western Blotting Detection Reagent (GE Healthcare) and visualized using the ChemiDoc MP imaging system (Bio-Rad).

active/cleaved caspase 6 = test: Cell-based caspase activation assay (western blot); design: species or system human
Procedure: as §2, §3, §4, §5, §6

active/cleaved caspase 3 = test: Cell-based caspase activation assay (western blot); design: species or system human
Procedure: as §2, §3, §4, §5, §6

T1 sequence (P61586 whole entry): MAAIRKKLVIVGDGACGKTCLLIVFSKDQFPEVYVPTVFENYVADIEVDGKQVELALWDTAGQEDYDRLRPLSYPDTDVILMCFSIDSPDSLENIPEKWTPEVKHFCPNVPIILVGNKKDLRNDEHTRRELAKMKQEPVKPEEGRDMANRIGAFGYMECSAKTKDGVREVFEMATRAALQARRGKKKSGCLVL

SMILES	KRas Q61H mutant + SOS: % inh. (KRas Q61H mutant)	KRas Q61H mutant: % inh. (KRas Q61H mutant)	inhibition at 20 µM (Rho-A)	KRas G12C mutant + SOS: % inh. (KRas G12C mutant)	KRas G12C mutant: % inh. (KRas G12C mutant)	Caspase 9 activation (active/cleaved caspase 9; A375, after 48 hours)	Caspase 9 activation (active/cleaved caspase 9; MiaPaca2, after 48 hours)	Caspase 6 activation (active/cleaved caspase 6; A375, after 48 hours)	Caspase 6 activation (active/cleaved caspase 6; MiaPaca2, after 48 hours)	Caspase 3 activation (active/cleaved caspase 3; A375, after 48 hours)	Caspase 3 activation (active/cleaved caspase 3; MiaPaca2, after 48 hours)	further results
CO[C@H]1CC[C@@H](Nc2nc(-c3ccccn3)nn3cc(-c4ccn(C(C)C)n4)c(C)c23)C1 (racemic) [Compound 9, rac 6-(1-Isopropyl-1H-pyrazol-3-yl)-N-((1R,3S)-3-methoxycyclopentyl)-5-methyl-2-(pyridin-2-yl)pyrrolo[2,1-f][1,2,4]triazin-4-amine]	0 (0 = 0% inhibition)	A (A = 1-25% inhibition)	0%	0 (0 = 0% inhibition)	B (B = 26-49% inhibition)	–	–	–	–	–	–	–
COc1cc(Nc2nc(-c3nccn3C)nn3cc(-c4ccn(C(C)C)n4)c(C)c23)ncn1 [Compound 6, 6-(1-Isopropyl-1H-pyrazol-3-yl)-N-(6-methoxypyrimidin-4-yl)-5-methyl-2-(1-methyl-1H-imidazol-2-yl)pyrrolo[2,1-f][1,2,4]triazin-4-amine]	C (C = 50-75% inhibition)	C (C = 50-75% inhibition)	76 to 100%	C (C = 50-75% inhibition)	C (C = 50-75% inhibition)	yes	yes	yes	yes	yes	yes	Caspase 9 activation (active/cleaved caspase 9; A549, after 48 hours): yes; Caspase 9 activation (active/cleaved caspase 9; BT-549, after 48 hours): yes; Caspase 6 activation (active/cleaved caspase 6; A549, after 48 hours): yes; Caspase 6 activation (active/cleaved caspase 6; BT-549, after 48 hours): yes; Caspase 6 activation (active/cleaved caspase 6; Panc-1, after 48 hours): yes; Caspase 3 activation (active/cleaved caspase 3; A549, after 48 hours): yes; Caspase 3 activation (active/cleaved caspase 3; BT-549, after 48 hours): yes; Caspase 3 activation (active/cleaved caspase 3; Panc-1, after 48 hours): yes
Cc1c(-c2ccn(C(C)C)n2)cn2nc(-c3ccccn3)nc(O)c12 [Compound 8, 6-(1-Isopropyl-1H-pyrazol-3-yl)-5-methyl-2-(pyridin-2-yl)pyrrolo[2,1-f][1,2,4]triazin-4-ol]	0 (0 = 0% inhibition)	0 (0 = 0% inhibition)	0%	A (A = 1-25% inhibition)	0 (0 = 0% inhibition)	–	–	–	–	–	–	–
COc1ccnc(Nc2nc(-c3nccn3C)nn3cc(-c4ccn(C)n4)c(C)c23)c1 [Compound 102, N-(4-Methoxypyridin-2-yl)-5-methyl-2-(1-methyl-1H-imidazol-2-yl)-6-(1-methyl-1H-pyrazol-3-yl)pyrrolo[2,1-f][1,2,4]triazin-4-amine]	–	–	–	–	–	yes	yes	yes	yes	yes	yes	Caspase 9 activation (active/cleaved caspase 9; A549, after 48 hours): yes; Caspase 9 activation (active/cleaved caspase 9; IM.9, after 48 hours): yes; Caspase 9 activation (active/cleaved caspase 9; MM.1R, after 48 hours): yes; Caspase 9 activation (active/cleaved caspase 9; NCI-H1975, after 48 hours): yes; Caspase 6 activation (active/cleaved caspase 6; A549, after 48 hours): yes; Caspase 6 activation (active/cleaved caspase 6; IM.9, after 48 hours): yes; Caspase 6 activation (active/cleaved caspase 6; MM.1R, after 48 hours): yes; Caspase 6 activation (active/cleaved caspase 6; NCI-H1975, after 48 hours): yes; Caspase 3 activation (active/cleaved caspase 3; A549, after 48 hours): yes; Caspase 3 activation (active/cleaved caspase 3; IM.9, after 48 hours): yes; Caspase 3 activation (active/cleaved caspase 3; MM.1R, after 48 hours): yes; Caspase 3 activation (active/cleaved caspase 3; NCI-H1975, after 48 hours): yes
Cc1c(-c2ccn(C)n2)cn2nc(-c3nccn3C)nc(Nc3cc4n(n3)CCO4)c12 [Compound 124, N-(5-Methyl-2-(1-methyl-1H-imidazol-2-yl)-6-(1-methyl-1H-pyrazol-3-yl)pyrrolo[2,1-f][1,2,4]triazin-4-yl)-2,3-dihydropyrazolo[5,1-b]oxazol-6-amine]	–	–	–	–	–	yes	yes	yes	yes	yes	yes	Caspase 9 activation (active/cleaved caspase 9; BT-549, after 48 hours): yes; Caspase 6 activation (active/cleaved caspase 6; BT-549, after 48 hours): yes; Caspase 6 activation (active/cleaved caspase 6; HCC1806, after 48 hours): yes; Caspase 6 activation (active/cleaved caspase 6; NCI-H358, after 48 hours): yes; Caspase 3 activation (active/cleaved caspase 3; BT-549, after 48 hours): yes; Caspase 3 activation (active/cleaved caspase 3; HCC1806, after 48 hours): yes; Caspase 3 activation (active/cleaved caspase 3; NCI-H358, after 48 hours): yes

The next lines start with results.

KRas Q61H mutant + SOS: % inh. (KRas Q61H mutant)	KRas Q61H mutant: % inh. (KRas Q61H mutant)	inhibition at 20 µM (Rho-A)	KRas G12C mutant + SOS: % inh. (KRas G12C mutant)	KRas G12C mutant: % inh. (KRas G12C mutant)	SMILES	Caspase 9 activation (active/cleaved caspase 9; A375, after 48 hours)	Caspase 9 activation (active/cleaved caspase 9; MiaPaca2, after 48 hours)	Caspase 6 activation (active/cleaved caspase 6; A375, after 48 hours)	Caspase 6 activation (active/cleaved caspase 6; MiaPaca2, after 48 hours)	Caspase 3 activation (active/cleaved caspase 3; A375, after 48 hours)	Caspase 3 activation (active/cleaved caspase 3; MiaPaca2, after 48 hours)	further results
D (D = 76-100% inhibition)	C (C = 50-75% inhibition)	76 to 100%	C (C = 50-75% inhibition)	D (D = 76-100% inhibition)	Cc1c(-c2ccn(C(C)C)n2)cn2nc(-c3nccn3C)nc(Nc3nccn3C)c12 [Compound 93, 6-(1-Isopropyl-1H-pyrazol-3-yl)-5-methyl-N,2-bis(1-methyl-1H-imidazol-2-yl)pyrrolo[2,1-f][1,2,4]triazin-4-amine]	–	–	–	–	–	–	–
C (C = 50-75% inhibition)	B (B = 26-49% inhibition)	76 to 100%	B (B = 26-49% inhibition)	B (B = 26-49% inhibition)	COc1cc(Nc2nc(-c3nccn3C)nn3cc(-c4ccccn4)c(C)c23)ncn1 [Compound 94, N-(6-Methoxypyrimidin-4-yl)-5-methyl-2-(1-methyl-1H-imidazol-2-yl)-6-(pyridin-2-yl)pyrrolo[2,1-f][1,2,4]triazin-4-amine]	–	–	–	–	–	–	–
C (C = 50-75% inhibition)	C (C = 50-75% inhibition)	76 to 100%	B (B = 26-49% inhibition)	B (B = 26-49% inhibition)	COc1ccnc(Nc2nc(-c3nccn3C)nn3cc(-c4ccn(C(F)F)n4)c(C)c23)n1 [Compound 95, 6-(1-(Difluoromethyl)-1H-pyrazol-3-yl)-N-(4-methoxypyrimidin-2-yl)-5-methyl-2-(1-methyl-1H-imidazol-2-yl)pyrrolo[2,1-f][1,2,4]triazin-4-amine]	–	–	–	–	–	–	–
–	–	–	B (B = 26-49% inhibition)	B (B = 26-49% inhibition)	Cc1c(-c2ccn(C)n2)cn2nc(-c3nccn3C)nc(Cl)c12 [Compound 99, 4-Chloro-5-methyl-2-(1-methyl-1H-imidazol-2-yl)-6-(1-methyl-1H-pyrazol-3-yl)pyrrolo[2,1-f][1,2,4]triazine]	–	–	–	–	–	–	–
